According to ChEMBL document CHEMBL1152689, “Synthesis, tautomerism, and antimicrobial, anti-HCV, anti-SSPE, antioxidant, and antitumor activities of arylazobenzosuberones” (Bioorg Med Chem, 2009):

These molecules were tested on Staphylococcus aureus (assay: Antimicrobial activity against Staphylococcus aureus at 1.25 ug/mL by agar diffusion method). Conditions: read-out: IZ.
Assay type: functional

SMILES	zone of inhibition at 1.25 µg/mL [mm]
CN(C/C=C/C#CC(C)(C)C)Cc1cccc2ccccc12 [TERBINAFINE]	4

What follows are molecules tested on Pseudomonas aeruginosa (assay: Antimicrobial activity against Pseudomonas aeruginosa at 5 ug/mL by agar diffusion method). Conditions: read-out: IZ.
Assay type: functional

SMILES	zone of inhibition at 5 µg/mL [mm]
CN(C/C=C/C#CC(C)(C)C)Cc1cccc2ccccc12 [TERBINAFINE]	11

What follows are molecules tested on Escherichia coli (assay: Antimicrobial activity against Escherichia coli at 1.25 ug/mL by agar diffusion method). Conditions: read-out: IZ.
Assay type: functional

SMILES	zone of inhibition at 1.25 µg/mL [mm]
CN(C/C=C/C#CC(C)(C)C)Cc1cccc2ccccc12 [TERBINAFINE]	13

These molecules were tested on Staphylococcus aureus (assay: Antimicrobial activity against Staphylococcus aureus at 5 ug/mL by agar diffusion method). Conditions: read-out: IZ.
Assay type: functional

SMILES	zone of inhibition at 5 µg/mL [mm]
CN(C/C=C/C#CC(C)(C)C)Cc1cccc2ccccc12 [TERBINAFINE]	15

The molecules below were run on Penicillium italicum (assay: Antimicrobial activity against Penicillium italicum at 5 ug/mL by agar diffusion method). Conditions: read-out: IZ.
Assay type: functional

SMILES	zone of inhibition at 5 µg/mL [mm]
CN(C/C=C/C#CC(C)(C)C)Cc1cccc2ccccc12 [TERBINAFINE]	19

What follows are molecules tested on Candida albicans (assay: Antimicrobial activity against Candida albicans at 5 ug/mL by agar diffusion method). Conditions: read-out: IZ.
Assay type: functional

SMILES	zone of inhibition at 5 µg/mL [mm]
CN(C/C=C/C#CC(C)(C)C)Cc1cccc2ccccc12 [TERBINAFINE]	19

The molecules below were run on Staphylococcus aureus (assay: Antimicrobial activity against Staphylococcus aureus at 2.5 ug/mL by agar diffusion method). Conditions: read-out: IZ.
Assay type: functional

SMILES	zone of inhibition at 2.5 µg/mL [mm]
CN(C/C=C/C#CC(C)(C)C)Cc1cccc2ccccc12 [TERBINAFINE]	6

The molecules below were run on Syncephalastrum racemosum (assay: Antimicrobial activity against Syncephalastrum racemosum at 1.25 ug/mL by agar diffusion method). Conditions: read-out: IZ.
Assay type: functional

SMILES	zone of inhibition at 1.25 µg/mL [mm]
CN(C/C=C/C#CC(C)(C)C)Cc1cccc2ccccc12 [TERBINAFINE]	9

Each molecule was assayed on Syncephalastrum racemosum (assay: Antimicrobial activity against Syncephalastrum racemosum at 2.5 ug/mL by agar diffusion method). Conditions: read-out: IZ.
Assay type: functional

SMILES	zone of inhibition at 2.5 µg/mL [mm]
CN(C/C=C/C#CC(C)(C)C)Cc1cccc2ccccc12 [TERBINAFINE]	13

Each molecule was assayed on Penicillium italicum (assay: Antimicrobial activity against Penicillium italicum at 2.5 ug/mL by agar diffusion method). Conditions: read-out: IZ.
Assay type: functional

SMILES	zone of inhibition at 2.5 µg/mL [mm]
CN(C/C=C/C#CC(C)(C)C)Cc1cccc2ccccc12 [TERBINAFINE]	9

What follows are molecules tested on Candida albicans (assay: Antimicrobial activity against Candida albicans at 2.5 ug/mL by agar diffusion method). Conditions: read-out: IZ.
Assay type: functional

SMILES	zone of inhibition at 2.5 µg/mL [mm]
CN(C/C=C/C#CC(C)(C)C)Cc1cccc2ccccc12 [TERBINAFINE]	10

What follows are molecules tested on Bacillus subtilis (assay: Antimicrobial activity against Bacillus subtilis at 1.25 ug/mL by agar diffusion method). Conditions: read-out: IZ.
Assay type: functional

SMILES	zone of inhibition at 1.25 µg/mL [mm]
CN(C/C=C/C#CC(C)(C)C)Cc1cccc2ccccc12 [TERBINAFINE]	11

Each molecule was assayed on Penicillium italicum (assay: Antimicrobial activity against Penicillium italicum at 1.25 ug/mL by agar diffusion method). Conditions: read-out: IZ.
Assay type: functional

SMILES	zone of inhibition at 1.25 µg/mL [mm]
CN(C/C=C/C#CC(C)(C)C)Cc1cccc2ccccc12 [TERBINAFINE]	4

The molecules below were run on Aspergillus fumigatus (assay: Antimicrobial activity against Aspergillus fumigatus at 5 ug/mL by agar diffusion method). Conditions: read-out: IZ.
Assay type: functional

SMILES	zone of inhibition at 5 µg/mL [mm]
CN(C/C=C/C#CC(C)(C)C)Cc1cccc2ccccc12 [TERBINAFINE]	24

Each molecule was assayed on Aspergillus fumigatus (assay: Antimicrobial activity against Aspergillus fumigatus at 2.5 ug/mL by agar diffusion method). Conditions: read-out: IZ.
Assay type: functional

SMILES	zone of inhibition at 2.5 µg/mL [mm]
CN(C/C=C/C#CC(C)(C)C)Cc1cccc2ccccc12 [TERBINAFINE]	18

The molecules below were run on Escherichia coli (assay: Antimicrobial activity against Escherichia coli at 5 ug/mL by agar diffusion method). Conditions: read-out: IZ.
Assay type: functional

SMILES	zone of inhibition at 5 µg/mL [mm]
CN(C/C=C/C#CC(C)(C)C)Cc1cccc2ccccc12 [TERBINAFINE]	27

These molecules were tested on Aspergillus fumigatus (assay: Antimicrobial activity against Aspergillus fumigatus at 1.25 ug/mL by agar diffusion method). Conditions: read-out: IZ.
Assay type: functional

SMILES	zone of inhibition at 1.25 µg/mL [mm]
CN(C/C=C/C#CC(C)(C)C)Cc1cccc2ccccc12 [TERBINAFINE]	11

These molecules were tested on Candida albicans (assay: Antimicrobial activity against Candida albicans at 1.25 ug/mL by agar diffusion method). Conditions: read-out: IZ.
Assay type: functional

SMILES	zone of inhibition at 1.25 µg/mL [mm]
CN(C/C=C/C#CC(C)(C)C)Cc1cccc2ccccc12 [TERBINAFINE]	6

Each molecule was assayed on Bacillus subtilis (assay: Antimicrobial activity against Bacillus subtilis at 2.5 ug/mL by agar diffusion method). Conditions: read-out: IZ.
Assay type: functional

SMILES	zone of inhibition at 2.5 µg/mL [mm]
CN(C/C=C/C#CC(C)(C)C)Cc1cccc2ccccc12 [TERBINAFINE]	18

Each molecule was assayed on Escherichia coli (assay: Antimicrobial activity against Escherichia coli at 2.5 ug/mL by agar diffusion method). Conditions: read-out: IZ.
Assay type: functional

SMILES	zone of inhibition at 2.5 µg/mL [mm]
CN(C/C=C/C#CC(C)(C)C)Cc1cccc2ccccc12 [TERBINAFINE]	20

Each molecule was assayed on Pseudomonas aeruginosa (assay: Antimicrobial activity against Pseudomonas aeruginosa at 1.25 ug/mL by agar diffusion method). Conditions: read-out: IZ.
Assay type: functional

SMILES	zone of inhibition at 1.25 µg/mL [mm]
CN(C/C=C/C#CC(C)(C)C)Cc1cccc2ccccc12 [TERBINAFINE]	0

Each molecule was assayed on Syncephalastrum racemosum (assay: Antimicrobial activity against Syncephalastrum racemosum at 5 ug/mL by agar diffusion method). Conditions: read-out: IZ.
Assay type: functional

SMILES	zone of inhibition at 5 µg/mL [mm]
CN(C/C=C/C#CC(C)(C)C)Cc1cccc2ccccc12 [TERBINAFINE]	21

The molecules below were run on Pseudomonas aeruginosa (assay: Antimicrobial activity against Pseudomonas aeruginosa at 2.5 ug/mL by agar diffusion method). Conditions: read-out: IZ.
Assay type: functional

SMILES	zone of inhibition at 2.5 µg/mL [mm]
CN(C/C=C/C#CC(C)(C)C)Cc1cccc2ccccc12 [TERBINAFINE]	5

Each molecule was assayed on Bacillus subtilis (assay: Antimicrobial activity against Bacillus subtilis at 5 ug/mL by agar diffusion method). Conditions: read-out: IZ.
Assay type: functional

SMILES	zone of inhibition at 5 µg/mL [mm]
CN(C/C=C/C#CC(C)(C)C)Cc1cccc2ccccc12 [TERBINAFINE]	22
